{"source": "patent US8979831B2", "about": "(priority 2008, dated 2015)", "key": {"[1]": {"system": "liver parenchyma", "set-up": "species or system porcine", "conditions": "for Final thermocouple pH after five minutes: after NaOH pre-injection"}, "[2]": {"system": "porcine liver samples", "conditions": "for Tissue destruction, visual observation: injected alone into porcine liver"}, "[3]": {"conditions": "100 microliters alone, 0:00 min"}, "[4]": {"conditions": "100 microliters alone, 0:15 min"}, "[5]": {"conditions": "100 microliters alone, 0:30 min"}, "[6]": {"conditions": "100 microliters alone, 1:00 min"}, "[7]": {"conditions": "100 microliters alone, 1:15 min"}}, "note": "Values joined by “and” are separate entries in the source; they are usually repeats but may differ in a detail not shown here. Equal entries are not always repeated. Where two headings read alike, the source gives them in different places."}
{"smiles": "CC(=O)OC(C)=O", "note": "[Acetic Anhydride]", "values": [{"measurement": "Recorded temperature change", "setting": "[1]", "result": "1.4-9.4 degrees C."}, {"measurement": "Final thermocouple pH after five minutes", "setting": "[1]", "result": "overwhelmingly basic"}, {"measurement": "Recorded temperature changes", "setting": "[2]", "result": "0.0-2.94 degrees C."}, {"measurement": "Temperature change from baseline", "setting": "[2]", "result": "≥ 1.0", "unit": "degree C."}, {"measurement": "pH", "setting": "[2]; [3]", "result": "6.33 and 7.52 and 7.1 and 6.14 and 6.23"}, {"measurement": "pH", "setting": "[2]; [4]", "result": "5.2 and 3.75 and 3.34 and 5.7 and 6.03"}, {"measurement": "pH", "setting": "[2]; [5]", "result": "5.06 and 3.54 and 3.2 and 5.63 and 6.01"}, {"measurement": "pH", "setting": "[2]; 100 microliters alone, 0:45 min", "result": "4.9 and 3.43 and 3.11 and 5.54 and 5.92"}, {"measurement": "pH", "setting": "[2]; [6]", "result": "4.81 and 3.36 and 3.05 and 5.42 and 5.91"}, {"measurement": "pH", "setting": "[2]; [7]", "result": "4.75 and 3.27 and 2.98 and 5.25 and 5.87"}, {"measurement": "pH", "setting": "[2]; 100 microliters alone, 2:00 min", "result": "4.47 and 3.09 and 2.77 and 4.3 and 5.5"}, {"measurement": "pH", "setting": "[2]; 100 microliters alone, 2:15 min", "result": "4.4 and 3.03 and 2.75 and 4.23 and 5.3"}, {"measurement": "pH", "setting": "[2]; 100 microliters alone, 2:30 min", "result": "4.35 and 2.96 and 2.71 and 4.21 and 4.79"}, {"measurement": "pH", "setting": "[2]; 100 microliters alone, 2:45 min", "result": "4.3 and 2.92 and 2.68 and 4.16 and 4.65"}, {"measurement": "pH", "setting": "[2]; 100 microliters alone, 3:00 min", "result": "4.25 and 2.9 and 2.65 and 4.12 and 4.57"}, {"measurement": "pH", "setting": "[2]; 100 microliters alone, 3:15 min", "result": "4.22 and 2.88 and 2.61 and 4.01 and 4.48"}, {"measurement": "pH", "setting": "[2]; 100 microliters alone, 3:30 min", "result": "4.2 and 2.84 and 2.57 and 4.01 and 4.46"}, {"measurement": "pH", "setting": "[2]; 100 microliters alone, 3:45 min", "result": "4.16 and 2.81 and 2.54 and 3.97 and 4.4"}, {"measurement": "pH", "setting": "[2]; 100 microliters alone, 4:00 min", "result": "4.14 and 2.78 and 2.5 and 3.93 and 4.38"}, {"measurement": "pH", "setting": "[2]; 100 microliters alone, 4:15 min", "result": "4.1 and 2.75 and 2.49 and 3.86 and 4.35"}, {"measurement": "pH", "setting": "[2]; 100 microliters alone, 4:30 min", "result": "4.09 and 2.74 and 2.46 and 3.84 and 4.32"}, {"measurement": "pH", "setting": "[2]; 100 microliters alone, 4:45 min", "result": "4.06 and 2.72 and 2.42 and 3.8 and 4.3"}, {"measurement": "pH", "setting": "[2]; 100 microliters alone, 5:00 min", "result": "4.05 and 2.7 and 2.41 and 3.74 and 4.29"}, {"measurement": "pH", "setting": "[2]; 200 microliters alone, 1:00 min", "result": "4.91 and 3.36 and 3.21 and 5.41 and 4.80"}, {"measurement": "Changes, pH (lower line)", "setting": "[2]; 200 microliters alone, lower line of Changes (fits 0:00 vs 5:00)", "result": "1.85 and 2.70 and 3.42 and 2.10 and 2.42"}, {"measurement": "Injections producing greater than one degree Celsius temperature change", "setting": "[2]; 300 microliters alone", "result": "three out of five injections"}, {"measurement": "Tissue destruction, visual observation", "setting": "[2]", "result": "larger volumes of Acetic Anhydride correlated with greater areas of tissue destruction"}]}
{"smiles": "CC(=O)Cl", "note": "[Acetyl Chloride]", "values": [{"measurement": "Temperature changes", "setting": "[1]; 100, 200, 300 microliters after 100 or 200 microliters of 1M-15M NaOH, 21 injections", "result": "7.9-32 degrees Celsius"}, {"measurement": "Final thermocouple pH after five minutes", "setting": "[1]", "result": "more acidic pH"}, {"measurement": "Temperature changes in the first thirty seconds after injection", "setting": "[1]; eleven of the twenty-one runs, with NaOH", "result": "20-30 degrees Celsius"}, {"measurement": "Temp", "setting": "[2]; 100 microliters alone, different temp probe, 0:00 min", "result": "16.4 C. and 17.1 C. and 17.4 C. and 16.6 C. and 17 C."}, {"measurement": "Temp", "setting": "[2]; 100 microliters alone, different temp probe, 0:30 min", "result": "22.5 C. and 32 C. and 39 C. and 42.2 C. and 32.3 C."}, {"measurement": "Temp", "setting": "[2]; 100 microliters alone, different temp probe, 0:45 min", "result": "21.5 C. and 27.5 C. and 33.5 C. and 33.9 C. and 27.3 C."}, {"measurement": "Temp", "setting": "[2]; 100 microliters alone, different temp probe, 1:00 min", "result": "21 C. and 25 C. and 30.6 C. and 30.7 C. and 25.7 C."}, {"measurement": "Temp", "setting": "[2]; 100 microliters alone, different temp probe, 1:15 min", "result": "20.2 C. and 24 C. and 28.4 C. and 27.8 C. and 23.9 C."}, {"measurement": "Temp", "setting": "[2]; 100 microliters alone, different temp probe, 1:30 min", "result": "19.6 C. and 23.5 C. and 27 C. and 26.2 C. and 23.1 C."}, {"measurement": "Temp", "setting": "[2]; 100 microliters alone, different temp probe, 1:45 min", "result": "19 C. and 22.7 C. and 25.6 C. and 25 C. and 22.3 C."}, {"measurement": "Temp", "setting": "[2]; 100 microliters alone, different temp probe, 2:00 min", "result": "18.4 C. and 22.1 C. and 24.7 C. and 24.2 C. and 21.6 C."}, {"measurement": "Temp", "setting": "[2]; 100 microliters alone, different temp probe, 2:15 min", "result": "18.3 C. and 21.4 C. and 23.9 C. and 23.2 C. and 21.1 C."}, {"measurement": "Temp", "setting": "[2]; 100 microliters alone, different temp probe, 2:30 min", "result": "18.1 C. and 21.1 C. and 23.3 C. and 22.6 C. and 20.6 C."}, {"measurement": "Temp", "setting": "[2]; 100 microliters alone, different temp probe, 2:45 min", "result": "18 C. and 20.6 C. and 22.6 C. and 22 C. and 20.2 C."}, {"measurement": "Temp", "setting": "[2]; 100 microliters alone, different temp probe, 3:00 min", "result": "17.9 C. and 20.3 C. and 22.1 C. and 21.5 C. and 19.9 C."}, {"measurement": "Temp", "setting": "[2]; 100 microliters alone, different temp probe, 3:15 min", "result": "17.8 C. and 20.1 C. and 21.7 C. and 21.1 C. and 19.6 C."}, {"measurement": "Temp", "setting": "[2]; 100 microliters alone, different temp probe, 3:45 min", "result": "17.6 C. and 19.5 C. and 21 C. and 20.4 C. and 19.1 C."}, {"measurement": "Temp", "setting": "[2]; 100 microliters alone, different temp probe, 4:00 min", "result": "17.5 C. and 19.4 C. and 20.7 C. and 20.1 C. and 18.9 C."}, {"measurement": "Temp", "setting": "[2]; 100 microliters alone, different temp probe, 4:15 min", "result": "17.5 C. and 19.2 C. and 20.4 C. and 19.9 C. and 18.9 C."}, {"measurement": "Temp", "setting": "[2]; 100 microliters alone, different temp probe, 4:30 min", "result": "17.4 C. and 19 C. and 20.2 C. and 19.6 C. and 18.6 C."}, {"measurement": "Temp", "setting": "[2]; 100 microliters alone, different temp probe, 4:45 min", "result": "17.3 C. and 18.8 C. and 20 C. and 19.4 C. and 18.4 C."}, {"measurement": "Temp", "setting": "[2]; 100 microliters alone, different temp probe, 5:00 min", "result": "17.3 C. and 18.6 C. and 19.8 C. and 19.2 C. and 18.3 C."}, {"measurement": "pH", "setting": "[2]; [3]", "result": "6.14 and 6.55 and 6.5 and 5.7"}, {"measurement": "pH", "setting": "[2]; [4]", "result": "3.1 and 4.67 and 4.62 and 4.82"}, {"measurement": "pH", "setting": "[2]; [5]", "result": "2.5 and 3.59 and 3.32 and 4.57"}, {"measurement": "Temp", "setting": "[2]; [6]", "result": "27.4 C. and 24.5 C. and 23.4 C. and 22.8 C."}, {"measurement": "Temp", "setting": "[2]; [7]", "result": 26.2, "unit": "C."}, {"measurement": "Tissue destruction, visual observation", "setting": "[2]", "result": "more violent and rapid tissue destruction than Acetic Anhydride"}]}
